Where two headings read alike, the source gives them in different places.

In general, IC50 refers to the concentration that gives 50% inhibition.

The subject of data set [1] is IKr. The settings on record: cited from earlier work.
In data set [2] the test system is K+ currents. The settings on record: 0.4 mM nisoldipine; cited from earlier work.
Data set [3] has as its system L-type Ca2+ channels. The settings on record: 0.4 mM nisoldipine; cited from earlier work.
The target in data set [4] is T1, IKs (slowly activating delayed rectifier K+ current) (Cavia porcellus, UniProt O70344).
T1 construct: Guinea pig ventricular myocytes were isolated; endogenous in cells; host or cells: isolated guinea pig ventricular myocytes
Nature of the data set: cell-based. The class given is cell-based, guinea pig. The method, then: Current amplitude is measured as the difference from the initial instantaneous current level following the capacitance discharge after changing the transmembrane voltage from -50 mV to +50 mV, to the current level at the end of the 1 second voltage step. Normally, an increase in the current amplitude occurs as a function of time and voltage during depolarization of the cardiac cell membrane and this increasing current has been defined as the delayed rectifier K^+ current (IK). […] IKs current occurs as a consequence of time- and voltage-dependent opening of ionic channels or pores in the cardiac cell membrane that allow the relatively selective flow of potassium ions (K^+) from the inside to the outside of the cell, that is, down the voltage and concentration gradient for K^+ ions that is inherent in cardiac cells. Thus, block of the IKs current ultimately reflects block of certain ion channels or pores in the cardiac cell membrane. However, the single pores or channels thought to underlie the IKs current have yet to be measured or identified at the single channel level.
(§1) Guinea pig ventricular myocytes were isolated using a modification of the procedure described by Mitra R and Morad M., "A Uniform Enzymatic Method for Dissociation of Myocytes from Hearts and Stomachs of Nertilorates", Am. J. Physiol. […] Excised hearts were perfused through the aorta (retrograde fashion) at a rate of 10 ml/min with oxygenated, warmed (37° C.) solutions described below. […] The head was then perfused with the same nominally Ca^2+ -free solution containing 150 units/ml Type II collagenase (Worthington) and 0.5 units/ml Type XIV protease (Sigma) for 8 minutes. This perfusate was followed by a Tyrode's solution containing 0.2 mM CaCl2 (without enzymes) for 5 minutes. The digested ventricles were cut into small pieces and gently shaken until cells were visibly dispersed. The cells were stored at room temperature until use, within 8 hours after isolation.
(§2) The suction microelectrode technique described by Giles, W. R. and Shibata, E. F., "Voltage clamp of bull-frog cardiac pacemaker cells: a quantitative, analysis of potassium currents". J. Physiol. […] Microelectrodes were made by using a two stage puller from square bore (1.0 mm o.d.) borosilicate capillary tubing. […] After establishing whole-cell recording mode, negative pressure was maintained on the pipette using a 1 ml gas-tight syringe attached via air tight tubing to the suction port of the microelectrode holder. This minimized dialysis of the cell with the pipette solution.
(§3) To record K^+ currents, the cells were bathed in a Ca^2+ -free Tyrode's :solution containing […] nisoldipine. […] A List EPC-7 clamp amplifier was used to voltage clamp the isolated cells. […] A variety of voltage pulse protocols were used to measure Ca^2+ current and three types of K^+ currents: inward rectifier (IK1), rapidly activating delayed rectifier (IKr) and the slowly activating delayed rectifier (IKs). Sanguinetti M. C. and Jurkiewicz, N. K., "Two components of cardiac delayed rectifier K^+ current: Differential sensitivity to block by Class III antiarrhythmic agents". […] Data was analyzed as % block from control membrane currents.
(§4) Nisoldipins was prepared as a 4 mM stock solution in polyethylne glycol 200. Compounds tested in this series were prepared as 10 mM stock solutions in polyethylene glycol 400 or dimethyl sulfoxide.

Data set [5] concerns the target T2, IKr (rapidly activating delayed rectifier K+ current) (Cavia porcellus, UniProt O08703).
T2 construct: Guinea pig ventricular myocytes were isolated; endogenous in cells; host or cells: isolated guinea pig ventricular myocytes
T2 sequence (O08703 1-1294): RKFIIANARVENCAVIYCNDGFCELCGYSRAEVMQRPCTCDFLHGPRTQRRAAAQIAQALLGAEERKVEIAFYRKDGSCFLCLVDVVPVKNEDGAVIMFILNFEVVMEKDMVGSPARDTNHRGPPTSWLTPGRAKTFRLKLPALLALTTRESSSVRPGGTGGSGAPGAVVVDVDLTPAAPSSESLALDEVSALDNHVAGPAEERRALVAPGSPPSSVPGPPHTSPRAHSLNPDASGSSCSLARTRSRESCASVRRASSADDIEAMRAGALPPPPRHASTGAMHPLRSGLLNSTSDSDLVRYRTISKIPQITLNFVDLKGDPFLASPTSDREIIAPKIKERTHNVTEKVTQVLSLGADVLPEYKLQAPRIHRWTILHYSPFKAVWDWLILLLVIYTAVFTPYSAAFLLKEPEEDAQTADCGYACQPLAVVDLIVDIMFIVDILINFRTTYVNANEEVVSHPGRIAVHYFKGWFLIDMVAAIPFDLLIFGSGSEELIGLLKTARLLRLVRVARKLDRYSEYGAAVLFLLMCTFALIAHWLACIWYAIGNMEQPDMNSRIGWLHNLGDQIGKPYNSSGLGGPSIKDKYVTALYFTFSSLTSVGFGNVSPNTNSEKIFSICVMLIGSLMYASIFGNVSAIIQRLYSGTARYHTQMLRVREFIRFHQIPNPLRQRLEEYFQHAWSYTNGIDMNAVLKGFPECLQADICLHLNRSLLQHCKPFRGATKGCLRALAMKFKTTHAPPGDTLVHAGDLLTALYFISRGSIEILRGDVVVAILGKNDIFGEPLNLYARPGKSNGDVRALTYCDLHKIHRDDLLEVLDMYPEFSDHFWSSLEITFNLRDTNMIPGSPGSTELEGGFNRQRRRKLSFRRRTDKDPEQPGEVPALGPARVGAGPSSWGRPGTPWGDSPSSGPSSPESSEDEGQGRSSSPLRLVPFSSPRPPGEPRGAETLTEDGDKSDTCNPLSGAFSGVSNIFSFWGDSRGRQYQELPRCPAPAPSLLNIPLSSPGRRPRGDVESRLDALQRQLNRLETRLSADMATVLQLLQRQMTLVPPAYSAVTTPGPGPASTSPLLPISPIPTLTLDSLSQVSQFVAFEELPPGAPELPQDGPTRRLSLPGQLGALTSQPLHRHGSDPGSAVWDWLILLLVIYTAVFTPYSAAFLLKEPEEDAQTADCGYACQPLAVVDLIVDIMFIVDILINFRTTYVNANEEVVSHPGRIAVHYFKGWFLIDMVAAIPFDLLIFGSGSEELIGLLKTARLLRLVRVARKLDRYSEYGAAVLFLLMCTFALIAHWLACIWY
As to the kind of experiment: voltage clamp measurement of IKr block in isolated guinea pig ventricular myocytes. The class given is cell-based. The method, then:
as §1, §2, §3, §4

The subject of data set [6] is adrenergic. The settings on record: cited from earlier work.
The test system of data set [7] is Na+ currents. The settings on record: cited from earlier work.
The conditions of data set [8]: cited from earlier work.
The test system of data set [9] is IKs. The settings on record: cited from earlier work.
Data set [10] has as its system Ca2+ currents. The settings on record: cited from earlier work.
Data set [11] has as its system phospholipase. The settings on record: cited from earlier work.
In data set [12] the test system is thyroid function. The settings on record: cited from earlier work.
Where [13] appears, read: 10 μM, read-out: Cellular Electrophysiology (% Block), IKs.
[14] abbreviates: 1 μM, read-out: Cellular Electrophysiology (% Block), IKr.
Setting [15] is: 10 μM, read-out: Cellular Electrophysiology (% Block), IKr.
The mark [16] stands for this setting: read-out: Cellular Electrophysiology (% Block), IKs.
Setting [17] is: read-out: Cellular Electrophysiology (% Block), IKr.
[18] abbreviates: read-out: IC50 or % Block (μM), IKr (% block).
The mark [19] stands for this setting: 1 μM, read-out: Cellular Electrophysiology (% Block), IKs.

As for `CN(CCOc1ccc(NS(C)(=O)=O)cc1)CCc1ccc(NS(C)(=O)=O)cc1` [dofetilide], the “block of IKr” value in data set [1] was “predominantly, if not exclusively, block IKr”.

Consider `COC(=O)C1=C(C)NC(C)=C(C(=O)OCC(C)C)C1c1ccccc1[N+](=O)[O-]` (stereo not shown) [Nisoldipine], for which the “effect on K+ currents” value in [2] is reported as “no effect on K^+ currents”. Besides, in data set [3], the “block of L-type Ca2+ channels” value is listed as “relatively specific blocker of L-type Ca^2+ channels”.

In the case of `Cc1cccc(NC(=O)NC2N=C(N3CCOCC3)c3ccccc3N(C)C2=O)c1` (stereo not shown) [Example 12], the figures for the inhibition at 10 µM in data set [4] (setting [13]) and in data set [5] (setting [15]) were 16 ± 11% and 30 ± 5.4%, respectively. Moreover, in [5] (setting [14]), the inhibition at 1 µM is 13 ± 3.1%.

As for `CN1C(=O)[C@H](NC(=O)C2CCC3(CC2)CCN(C(=O)OC(C)(C)C)CC3)N=C(c2ccccc2)c2ccccc21` [Example 40, (+)-N-[(3R)-2,3-Dihydro-1-methyl-2-oxo-5-phenyl-1H-1,4-benzo-diazepin-3-yl]-1'-(1,1-dimethylethoxycarbonyl)spiro(cyclohexan-4,4'-piperidine)-1-carboxamide], the “IKs inhibition, purity of action” value in data set [4] (in words) was “not a pure IKs inhibitor”.

Consider `CCCCc1oc2ccccc2c1C(=O)c1cc(I)c(OCCN(CC)CC)c(I)c1` [amiodarone], for which the adrenergic block result in data set [6] is on record as “nonspecific adrenergic blocker”. Also, the “block of Na+ currents” value in [7] was “blocks Na^+ and Ca^2+ currents”. Also, the “Class III properties / selectivity” value was “interesting Class III properties” in [8] and “not a selective Class III antiarrhythmic agent” in data set [8] (listed as Amiodarone). Moreover, the “block of IKs” value in data set [9] was “blocker of IKs”. The “block of Ca2+ currents” value in data set [10] is “blocks Na^+ and Ca^2+ currents”. Besides, the inhibition of phospholipase result in [11] was “inhbitor of the enzyme phospholipase”. The “effect on thyroid function” value in data set [12] is “effects thyroid function”.

Take `CC(C)NCC(O)c1ccc(NS(C)(=O)=O)cc1` (stereo not drawn) [d-sotalol]: in [1], the “block of IKr” value is “predominantly, if not exclusively, block IKr”.

As to `CN1C(=O)[C@H](N)N=C(c2ccccc2)c2ccccc21` [Example 7], in [4] (setting [16]), the inhibition at 1 µM was 29.9 ± 6% and the inhibition at 10 µM was 43.4 ± 10.8%. In addition, in data set [5] (setting [17]), the inhibition at 1 µM is 14.8 ± 6.7% and the inhibition at 10 µM came to 36.4 ± 2.9%.

For `CN1C(=O)[C@H](NC(=O)c2cc3ccccc3[nH]2)N=C(c2ccccc2)c2ccccc21` [Compound 1, 3(R)-(+)-1,3-dihydro-3-(2-indolecarbonylamino)-1-methyl-5-phenyl-2H-1,4-benzodiazepin-2-one], in [5] (setting [18]), the inhibition at 1 µM was determined as 20%.

With `CN1C(=O)[C@@H](NC(=O)c2cc3ccccc3[nH]2)N=C(c2ccccc2)c2ccccc21` [Compound 2, 3(S)-(-)-1,3-dihydro-3-(2-indolecarbonylamino)-1-methyl-5-phenyl-2H-1,4-benzodiazepin-2-one], the inhibition at 1 µM in [4] (read-out: IC50 or % Block (μM), IKs (% block)) was 25%; in data set [5] (setting [18]) it was 21%.

`CC(C)S(=O)(=O)NC(=O)c1cccc(NC(=O)NC2N=C(C3CCCCC3)c3ccccc3N(C)C2=O)c1` (stereo not shown) [Example 5]: the inhibition at 1 µM in data set [4] (setting [19]) was 10%; in [5] (setting [14]), 16.1%. Besides, the inhibition at 10 µM in data set [4] (setting [13]) was 30.5 ± 6.6%; in data set [5] (setting [15]), 24.7 ± 13%. Moreover, the IC50 in data set [4] (Guinea Pig Myocytes, read-out: IC50 or % Block (μM), IKs (bare number: IC50)) stood at 57 µM; in data set [5] (Guinea Pig Myocytes, read-out: IC50 or % Block (μM), IKr (bare number: IC50)) it was 77 µM.

With `CN1C(=O)C(NC(=O)c2cc3ccccc3[nH]2)N=C(c2ccncc2)c2ccccc21` (stereo not shown) [Example 9], the inhibition at 1 µM in data set [4] (setting [19]) came to 20%; in [5] (setting [14]), 44.3%. The figures for the inhibition at 10 µM in data set [4] (setting [13]) and in data set [5] (setting [15]) were 66% and 82.4%, respectively.

Take `CS(=O)(=O)Nc1ccc2c(c1)C(O)CC1(CCN(C3CCc4cc(C#N)ccc4C3)CC1)O2` (single isomer, unassigned): in [1], the “block of IKr” value was “predominantly, if not exclusively, block IKr”.

The values above are taken from patent US5428031A, “Methods of treating cardiac arrhythmia” (priority 1993, dated 1995).
